From US20250388593A1 (MITSUBISHI TANABE PHARMA CORPORATION, priority 2023, published 2025)

Target: CRBN truncate (318-426) (Homo sapiens (Human), UniProt Q96SW2)
Test: Measurement of molecular interactions using surface plasmon resonance (SPR), Biacore T200
Format: binding
Settings: 25° C., immobilized CRBN truncate, upper limit of measurement 200 μM
Description: The instrument used was the Biacore T200 (manufactured by Cytiva). The CRBN truncate (318-426) was obtained by expressing a construct with an Avi-tag added at the C-terminus. The sensor chip used was Sensor Chip SA (manufactured by Cytiva). The CRBN truncate was immobilized using the affinity between SA (streptavidin) on the sensor chip and the Avi-tag. The running buffer was a mixture of 10 mM HEPES pH 7.5, 150 mM NaCl, 1 mM TCEP, 0.005% Tween 20, and 2% DMSO. […] Contact time and dissociation time were set at 60 seconds and 120 seconds, respectively.

Chain of CRBN truncate (318-426) (Q96SW2 318-426): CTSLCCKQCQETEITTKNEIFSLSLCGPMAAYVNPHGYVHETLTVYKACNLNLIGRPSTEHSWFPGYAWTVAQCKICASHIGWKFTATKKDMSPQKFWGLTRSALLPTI

Compound | Kd [µM]
2-(3-Methyl-5-nitro-2-pyridyl)-2,7-diazaspiro[4.6]undecane-6,8-dione [Example 78] | ≥ 100
O=C1NC(=O)[C@@]2(c3ccc(Br)cc3)CC[C@@H]1O2 (racemic) [Example 173, 1-(4-Bromophenyl)-8-oxa-3-azabicyclo [3.2.1]octane-2,4-dione] | ≥ 100
CN1C(=O)[C@H](N2C=CCC(=O)NC2=O)C[C@H]1c1ccc(/C=C/C(=O)OC(C)(C)C)cc1 (relative stereo) [Example 290, tert-Butyl (E)-3-[4-[(2S*,4R*)-4-(2,4-dioxo-5H-1,3-diazepin-1-yl)-1-methyl-5-oxopyrrolidin-2-yl]phenyl]prop-2-enoate] | ≥ 100
Cc1sc2c(c1C)C(c1ccc(Cl)cc1)=N[C@@H](CC(=O)NCCCCCCCCNC(=O)/C=C/c1ccc([C@H]3C[C@H](N4C=CCC(=O)NC4=O)C(=O)N3C)cc1)c1nnc(C)n1-2 (relative stereo) [Example 349, (E)-N-[8-[[2-[(9S)-7-(4-chlorophenyl)-4,5,13-trimethyl-3-thia-1,8,11,12-tetrazatricyclo[8.3.0.02,6]trideca-2(6),4,7,10,12-pentaen-9-yl]acetyl]amino]octyl]-3-[4-[(2R*,4S*)-4-(2,4-dioxo-5H-1,3-diazepin-1-yl)-1-methyl-5-oxopyrrolidin-2-yl]phenyl]prop-2-enamide] | < 50
Cn1c(=O)n([C@@H]2CCCC(=O)NC2=O)c2cccc(I)c21 (single isomer, unassigned) [Example 211, 3-(4-Iodo-3-methyl-2-oxobenzimidazol-1-yl) azepane-2,7-dione] | 50 to 100
Cc1sc2c(c1C)C(c1ccc(Cl)cc1)=N[C@@H](CC(=O)NCCCCCCCCCCC(=O)N1CCC(c3ccc(C45CCC(O4)C(=O)NC5=O)cc3)CC1)c1nnc(C)n1-2 (stereo in doubt) [Example 358, 2-[(9S)-7-(4-chlorophenyl)-4,5,13-trimethyl-3-thia-1,8,11,12-tetraazatricyclo[8.3.0.02,6]trideca-2(6),4,7,10,12-pentaen-9-yl]-N-[11-[4-[4-[(1R*,5R*)-2,4-dioxo-8-oxa-3-azabicyclo[3.2.1]octan-1-yl]phenyl]-1-piperidyl]-11-oxo-undecyl]acetamide] | < 50
CC(C)(C)OC(=O)NCc1cn(C2CCCC(=O)NC2=O)nn1 (stereo not drawn) [Example 1, tert-Butyl N-[[1-(2,7-dioxoazepan-3-yl)triazol-4-yl]methyl]carbamate] | ≥ 100
CC(C)(C)OC(=O)N1CCC(c2cn(C3CCCC(=O)NC3=O)nn2)CC1 (stereo not drawn) [Example 2, tert-Butyl 4-[1-(2,7-dioxoazepan-3-yl)triazol-4-yl]piperidine-1-carboxylate] | ≥ 100
CC(C)(C)OC(=O)Nc1ccc(-c2cn(C3CCCC(=O)NC3=O)nn2)cc1 (stereo not drawn) [Example 3, tert-Butyl N-[4-[1-(2,7-dioxoazepan-3-yl)triazol-4-yl]phenyl]carbamate] | ≥ 100
CC(C)(C)OC(=O)Nc1cccc(-c2cn(C3CCCC(=O)NC3=O)nn2)c1 (stereo not drawn) [Example 5, tert-Butyl N-[3-[1-(2,7-dioxoazepan-3-yl)triazol-4-yl]phenyl]carb amate] | ≥ 100
CC(C)(C)OC(=O)Nc1ccccc1-c1cn(C2CCCC(=O)NC2=O)nn1 (stereo not drawn) [Example 6, tert-Butyl N-[2-[1-(2,7-dioxoazepan-3-yl)triazol-4-yl]phenyl]carbamate] | ≥ 100
CN(C1CCCC(=O)NC1=O)S(=O)(=O)c1ccc(Cl)cc1 (stereo not drawn) [Example 7, 4-Chloro-N-(2,7-dioxoazepan-3-yl)-N-methylbenzenesulfonamide] | ≥ 100
O=C1CCCC(NS(=O)(=O)c2ccc(Cl)cc2)C(=O)N1 (stereo not drawn) [Example 8, 4-Chloro-N-(2,7-dioxoazepan-3-yl) benzenesulfonamide] | ≥ 100
O=C1CCCC(NS(=O)(=O)c2cccc(Cl)c2)C(=O)N1 (stereo not drawn) [Example 9, 3-Chloro-N-(2,7-dioxoazepan-3-yl) benzenesulfonamide] | ≥ 100
CN(C1CCCC(=O)NC1=O)S(=O)(=O)c1cccc(Cl)c1 (stereo not drawn) [Example 10, 3-Chloro-N-(2,7-dioxoazepan-3-yl)-N-methylbenzenesulfonamide] | ≥ 100
COC(=O)c1cccc(S(=O)(=O)N(C)C2CCCC(=O)NC2=O)c1 (stereo not drawn) [Example 11, Methyl 3-[(2,7-dioxoazepan-3-yl)-methylsulfamoyl]benzoate] | ≥ 100
O=C1COCC2(CCCN(C(=O)c3ccccc3)C2)C(=O)N1 (stereo not drawn) [Example 12-2, 2-Benzoyl-8-oxa-2,11-diazaspiro[5.6]dodecane-10,12-dione] | ≥ 100
O=C1COCC2(CCN(C(=O)c3ccccc3)CC2)C(=O)N1 [Example 13-2, 3-benzoyl-8-oxa-3,11-diazaspiro[5.6]dodecane-10,12-dione] | ≥ 100
O=C1CCCC2(CCCN(C(=O)c3ccccc3)CCC2)C(=O)N1 [Example 14, 11-Benzoyl-2,11-diazaspiro[6.7]tetradecane-1,3-dione] | 50 to 100
CC(C)(C)OC(=O)c1ccc(N2CCCC3(COCC(=O)NC3=O)C2)nc1 (stereo not drawn) [Example 15, tert-Butyl 6-(10,12-dioxo-8-oxa-2,11-diazaspiro [5.6]dodecan-2-yl) pyridine-3-carboxylate] | ≥ 100
CC(C)(C)OC(=O)c1ccc(N2CCC3(CC2)COCC(=O)NC3=O)nc1 [Example 16, tert-Butyl 6-(10,12-dioxo-8-oxa-3,11-diazaspiro [5.6]dodecan-3-yl) pyridine-3-carboxylate] | ≥ 100

Compound | Kd [µM]
O=C1CCOC(c2ccccc2)C(=O)N1 (stereo not drawn) [Example 18, 2-Phenyl-1,4-oxazepane-3,5-dione] | ≥ 100
O=C1CCOC(c2cccc(Br)c2)C(=O)N1 (stereo not drawn) [Example 19, 2-(3-Bromophenyl)-1,4-oxazepane-3,5-dione] | ≥ 100
CN(C(=O)c1cccc(-c2ccccc2)c1)C1CCCC(=O)NC1=O (stereo not drawn) [Example 20, N-(2,7-Dioxoazepan-3-yl)-N-methyl-3-phenylbenzamide] | ≥ 100
O=C1CCCC(NC(=O)c2cccc(-c3ccccc3)c2)C(=O)N1 (stereo not drawn) [Example 21, N-(2,7-dioxoazepan-3-yl)-3-phenylbenzamide] | ≥ 100
O=C1COCC(NC(=O)c2cccc(-c3ccccc3)c2)C(=O)N1 (stereo not drawn) [Example 22, N-(3,5-dioxo-1,4-oxazepan-6-yl)-3-phenylbenzamide] | ≥ 100
CC(C)(C)OC(=O)N(CC1CCCC(=O)NC1=O)c1ccc(F)cc1 (stereo not drawn) [Example 24, tert-Butyl N-[(2,7-dioxoazepan-3-yl)methyl]-N-(4-fluorophenyl) carbamate] | ≥ 100
O=C1CCCC(CNc2ccc(F)cc2)C(=O)N1 (stereo not drawn) [Example 25, 3-[(4-Fluoroanilino)methyl]azepane-2,7-dione] | ≥ 100
COC(=O)c1ccc(=O)n(C2CCCC(=O)NC2=O)c1 (stereo not drawn) [Example 26, Methyl 1-(2,7-dioxoazepan-3-yl)-6-oxopyridine-3-carboxylate] | ≥ 100
CN(C1CCCC(=O)NC1=O)S(=O)(=O)c1ccc(CNC(=O)OC(C)(C)C)cc1 (stereo not drawn) [Example 27, tert-Butyl N-[[4-[(2,7-dioxoazepan-3-yl)-methylsulfamoyl]phenyl]methyl]carbamate] | ≥ 100
O=C1CCCC(C(=O)Nc2ccc(F)cc2)C(=O)N1 (stereo not drawn) [Example 28, N-(4-Fluorophenyl)-2,7-dioxoazepane-3-carboxamide] | ≥ 100
CC(C)(C)OC(=O)N1CCN(C2CCCC(=O)NC2=O)C(=O)C1 (stereo not drawn) [Example 29-1, tert-Butyl 4-(2,7-dioxoazepan-3-yl)-3-oxopiperazine-1-carboxylate] | ≥ 100
CC(C)(C)OC(=O)N1CCN(C2CCCC(=O)NC2=O)C(=O)C1=O (stereo not drawn) [Example 29-2, tert-Butyl 4-(2,7-dioxoazepan-3-yl)-2,3-dioxopiperazine-1-carboxylate] | ≥ 100
CC(C)(C)OC(=O)c1ccc(N2CCN(C3CCCC(=O)NC3=O)C(=O)C2)nc1 (stereo not drawn) [Example 30, tert-Butyl 6-[4-(2,7-dioxoazepan-3-yl)-3-oxopiperazin-1-yl]pyridine-3-carboxylate] | ≥ 100
CC1(CN2C(=O)c3ccccc3C2=O)CCCC(=O)NC1=O (stereo not drawn) [Example 31, 2-[(3-Methyl-2,7-dioxoazepan-3-yl)methyl]isoindole-1,3-dione] | 50 to 100
CC(C)(C)OC(=O)c1cnc(N2CCC3(CCCC(=O)NC3=O)C2)nc1 (stereo not drawn) [Example 32, tert-Butyl 2-(6,8-dioxo-2,7-diazaspiro [4.6]undecan-2-yl) pyrimidine-5-carboxylate] | ≥ 100
COC(=O)c1cccc(CN2CCC3(CCCC(=O)NC3=O)C2)c1 (stereo not drawn) [Example 33, Methyl 3-[(6,8-dioxo-2,7-diazaspiro[4.6]undecan-2-yl)methyl]benzoate] | ≥ 100
COC(=O)c1ccc(CN2CCC3(CCCC(=O)NC3=O)C2)cc1 (stereo not drawn) [Example 34, Methyl 4-[(6,8-dioxo-2,7-diazaspiro[4.6]undecan-2-yl)methyl]benzoate] | ≥ 100
CC(C)(C)OC(=O)c1cnc(N2CCC3(CCCC(=O)NC3=O)C2)cn1 (stereo not drawn) [Example 35, tert-Butyl 5-(6,8-dioxo-2,7-diazaspiro[4.6]undecan-2-yl)pyrazine-2-carboxylate] | ≥ 100
COC(=O)c1cc2c(N3CCC4(CCCC(=O)NC4=O)C3)ncnc2n1C (stereo not drawn) [Example 36, Methyl 4-(6,8-dioxo-2,7-diazaspiro[4.6]undecan-2-yl)-7-methyl-pyrrolo[2,3-d]pyrimidine-6-carboxylate] | < 50
Cn1ccc2c(N3CCC4(CCCC(=O)NC4=O)C3)ncnc21 (stereo not drawn) [Example 37, 2-(7-methylpyrrolo[2,3-d]pyrimidin-4-yl)-2,7-diazaspiro[4.6]undecane-6,8-dione] | ≥ 100
O=C1CCCC2(CCN(c3ccc(C(F)(F)F)cn3)C2)C(=O)N1 (stereo not drawn) [Example 38, 2-[5-(trifluoromethyl)-2-pyridyl]-2,7-diazaspiro[4.6]undecane-6,8-dione] | ≥ 100
